Patent US8569336B2, “Compounds for the treatment of inflammatory disorders” (priority 2008, dated 2013)
Read-outs that look alike come from different tables or passages of the source.

Columns and labels:
[1] = system: TNF-α production from human whole blood; test: Inhibition of TNF-α production from human whole blood (hWBA), LPS stimulated, ELISA; format: cell-based; settings: Homo sapiens, TNF-α by ELISA, read-out: hWBA (IC50)
[2] = target: T1, purified catalytic domain of recombinant human TACE (rhTACEc) (Homo sapiens, UniProt P78536, N452Q/S266A); test: TACE kinetic assay: cleavage of internally quenched peptide substrate TNF-FRET 2 (Ki); format: biochemical; settings: TNF-FRET 2 substrate
T1 construct: 6xHis (C); made in house; host or cells: baculovirus/Hi5 insect cells

[3] = LPS-stimulated human whole blood
[4] = 3.5 h, human whole blood diluted 1:1, LPS stimulated, 3.5 h
[5] = human whole blood diluted 1:1, LPS stimulated

T1 sequence (P78536 215-477 S266A/N452Q): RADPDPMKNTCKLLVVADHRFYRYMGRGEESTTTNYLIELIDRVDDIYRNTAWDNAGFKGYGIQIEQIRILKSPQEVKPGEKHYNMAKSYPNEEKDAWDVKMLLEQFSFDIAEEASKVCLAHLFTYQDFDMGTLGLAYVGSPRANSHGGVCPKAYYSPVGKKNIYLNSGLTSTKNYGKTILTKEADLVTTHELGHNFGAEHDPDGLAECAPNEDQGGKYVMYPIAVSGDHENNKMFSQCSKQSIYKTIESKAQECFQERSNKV

SMILES | IC50 [1, 3] | Ki ([2]; read-out: Ki) | further results
COc1cc2c(cc1OC)C(=O)N(C[C@@]1(c3cc4cnccc4o3)NC(=O)NC1=O)C2 [Compound 200] | ≥ 10 µM | 7.23 nM | 
COc1cc2c(cc1OC)C(=O)N(C[C@]1(c3cc4cnccc4o3)NC(=O)NC1=O)C2 [Compound 201] | 6.66 µM | 149 nM | 
COc1ccc2c(c1F)C(=O)N(C[C@@]1(c3cc4c(C)nc(C)cc4o3)NC(=O)NC1=O)C2 [Compound 202] | 0.553 µM | 0.568 nM | 
COc1ccc2c(c1F)C(=O)N(C[C@@]1(c3cc4cc(C)nc(C)c4o3)NC(=O)NC1=O)C2 [Compound 203] | 0.943 µM | 0.0608 nM | 
COc1ccc2c(c1)C(=O)N(C[C@@]1(c3cc4cc(C)nc(C)c4o3)NC(=O)NC1=O)C2 [Compound 204] | 4.09 µM | 0.667 nM | 
COc1ccc2c(c1F)C(=O)N(C[C@@]1(c3cc4cc(-c5cc(=O)[nH]c(N)n5)ccc4o3)NC(=O)NC1=O)C2 [Compound 300] | 0.364 µM | 0.538 nM | 
COc1ccc2c(c1)C(=O)N(C[C@@]1(c3cc4cc(C5CCNCC5)ncc4o3)NC(=O)NC1=O)C2 [Compound 301] | 0.162 µM | 1.04 nM | 
COc1ccc2c(c1)C(=O)N(C[C@@]1(c3cc4cc(-c5cc(O)nc(N)n5)cnc4o3)NC(=O)NC1=O)C2 [Compound 302] | 0.151 µM | 0.53 nM | 
COc1ccc2c(c1F)C(=O)N(C[C@@]1(c3cc4cncnc4o3)NC(=O)NC1=O)C2 [Compound 303] | 0.198 µM | 1.57 nM | 
COc1ccc2c(c1F)C(=O)N(C[C@@]1(c3cc4cnc(C)nc4o3)NC(=O)NC1=O)C2 [Compound 304] | 0.3 µM | 1.23 nM | 
COc1ccc2c(c1)C(=O)N(C[C@@]1(c3cc4cc(-c5cnn(C)c5)ncc4o3)NC(=O)NC1=O)C2 [Compound 306] | 0.658 µM | 0.661 nM | 
CSc1ccc2c(c1)C(=O)N(C[C@@]1(c3cc4cnccc4o3)NC(=O)NC1=O)C2 [Compound 309] | 0.662 µM | 0.377 nM | 
COc1ccc2c(c1F)C(=O)N(C[C@@]1(c3ccc(-c4ccc(N)nc4)o3)NC(=O)NC1=O)C2 [Compound 310] | 0.244 µM | 0.0208 nM | 
COc1ccc2c(c1)C(=O)N(C[C@@]1(c3cc4cc(C(N)C(F)(F)F)ccc4o3)NC(=O)NC1=O)C2 (some centres unmarked) [Compound 311] | 0.784 µM | 0.594 nM | 
COc1ccc2c(c1F)C(=O)N(C[C@]1(c3ccco3)NC(=O)NC1=O)C2 [Compound 312] |  | 501 nM | 
COc1ccc2c(c1F)C(=O)N(C[C@@]1(c3ccco3)NC(=O)NC1=O)C2 [Compound 313] | 1.79 µM | 0.736 nM | 
COc1ccc2c(c1F)C(=O)N(C[C@@]1(c3ccc(-c4cccnc4)o3)NC(=O)NC1=O)C2 [Compound 314] | 0.536 µM | 0.444 nM | 
COc1ccc2c(c1)C(=O)N(C[C@@]1(c3cc4c(o3)CCN(S(C)(=O)=O)C4)NC(=O)NC1=O)C2 [Compound 316] | 0.497 µM | 0.82 nM | 
CCOC(=O)N1CCc2cc([C@]3(CN4Cc5ccc(OC)cc5C4=O)NC(=O)NC3=O)oc2C1 [Compound 317] | 0.704 µM | 2.13 nM | 
COc1ccc2c(c1)C(=O)N(C[C@@]1(c3cc4c(o3)CCN(C(N)=O)C4)NC(=O)NC1=O)C2 [Compound 318] | 0.646 µM | 5.62 nM | 
COc1ccc2c(c1)C(=O)N(C[C@@]1(c3cc4c(o3)CCN(C(=O)N(C)C)C4)NC(=O)NC1=O)C2 [Compound 319] | 0.501 µM | 1.83 nM | 
COc1ccc2c(c1)C(=O)N(C[C@@]1(c3cc4c(o3)CCN(C(=O)Nc3cccnc3)C4)NC(=O)NC1=O)C2 [Compound 321] | ≥ 1000 µM | 701 nM | 
COc1ccc2c(c1)C(=O)N(C[C@@]1(c3cc4cnc(C#N)cc4o3)NC(=O)NC1=O)C2 [Compound 322] | 0.759 µM | 0.67 nM | 
COc1ccc2c(c1)C(=O)N(C[C@@]1(c3cc4cc(-c5c(OC(C)C)noc5C)cnc4o3)NC(=O)NC1=O)C2 [Compound 501] | 1.59 µM | 0.844 nM | 
COc1ccc2c(c1)C(=O)N(C[C@@]1(c3cn4c5c(sc4n3)CN(C)CC5)NC(=O)NC1=O)C2 [Compound 503] | 1.83 µM | 4.23 nM | 
COc1ccc2c(c1F)C(=O)N(C[C@@]1(c3cc4ccc(NC(C)=O)nc4o3)NC(=O)NC1=O)C2 [Compound 505] | 0.252 µM | 0.558 nM | 

SMILES | IC50 [1, 3] | Ki ([2]; read-out: Ki) | further results
CCN1CCN(c2ccc3oc([C@@]4(CN5Cc6ccc(OCC7CC7)c(F)c6C5=O)NC(=O)NC4=O)cc3n2)CC1 [Compound 901] |  | 501 nM | 
COc1ccc2c(c1F)C(=O)N(C[C@@]1(c3cc4cc(-c5c(C)nn(C)c5C)c(F)cc4o3)NC(=O)NC1=O)C2 [Compound 1181] | 0.354 µM | 0.41 nM | 
COc1ccc2c(c1F)C(=O)N(C[C@@]1(c3cc4cc(-c5c(C)nn(C)c5C)c(F)cc4o3)NC(=O)NC1=O)C2 [Compound 1182] |  | 0.41 nM | 
COc1ccc2c(c1F)C(=O)N(C[C@@]1(c3cc4cc(-c5c(C)n[nH]c5C)c(F)cc4o3)NC(=O)NC1=O)C2 [Compound 1183] | 0.232 µM | 0.14 nM | 
COc1ccc2c(c1)C(=O)N(C[C@@]1(c3cc4cc(-c5ccc(N(C)C)nc5)ccc4o3)NC(=O)NC1=O)C2 [Compound 1184] |  | 0.85 nM | IC50 [1, 4]: 2.71 µM
COC(=O)c1cc2cc([C@]3(CN4Cc5ccc(OC)cc5C4=O)NC(=O)NC3=O)oc2cc1F [Compound 1271] |  | 0.45 nM | IC50 [1, 4]: 1.05 µM
COc1ccc2c(c1)C(=O)N(C[C@@]1(c3cc4cc(C(=O)O)c(F)cc4o3)NC(=O)NC1=O)C2 [Compound 1272] |  | 0.51 nM | IC50 [1, 4]: 0.667 µM
COc1ccc2c(c1)C(=O)N(C[C@@]1(c3cc4cc(C(=O)NCCN)c(F)cc4o3)NC(=O)NC1=O)C2 [Compound 1274] |  | 0.5 nM | IC50 [1, 4]: 0.142 µM
COc1ccc2c(c1)C(=O)N(C[C@@]1(c3cc4cc(C(=O)N(C)CCN(C)C)c(F)cc4o3)NC(=O)NC1=O)C2 [Compound 1275] |  | 0.88 nM | IC50 [1, 4]: 0.441 µM
COc1ccc2c(c1)C(=O)N(C[C@@]1(c3cc4cc(C(=O)NCCNC(C)C)c(F)cc4o3)NC(=O)NC1=O)C2 [Compound 1276] |  | 1.2 nM | IC50 [1, 4]: 0.251 µM
COc1ccc2c(c1)C(=O)N(C[C@@]1(c3cc4cc(C(=O)N5CCC(N(C)C)CC5)c(F)cc4o3)NC(=O)NC1=O)C2 [Compound 1277] |  | 0.62 nM | IC50 [1, 4]: 0.471 µM
COc1ccc2c(c1)C(=O)N(C[C@@]1(c3cc4cc(C(=O)NCCN(C)CCNC(=O)OC(C)(C)C)c(F)cc4o3)NC(=O)NC1=O)C2 [Compound 1278] |  | 1.8 nM | IC50 [1, 4]: 3.26 µM
COc1ccc2c(c1)C(=O)N(C[C@@]1(c3cc4cc(C(=O)NCCN(C)CCN)c(F)cc4o3)NC(=O)NC1=O)C2 [Compound 1279] |  | 1 nM | IC50 [1, 4]: 0.504 µM
COc1ccc2c(c1)C(=O)N(C[C@@]1(c3cc4cc(C(=O)NCCN(C)CCNS(C)(=O)=O)c(F)cc4o3)NC(=O)NC1=O)C2 [Compound 1281] |  | 0.83 nM | IC50 [1, 4]: 1.1 µM
COC(=O)[C@H](CCCCNC(=O)c1cc2cc([C@]3(CN4Cc5ccc(OC)cc5C4=O)NC(=O)NC3=O)oc2cc1F)NC(=O)CCCC[C@@H]1SCC2NC(=O)NC21 (some centres unmarked) [Compound 1282] |  | 0.48 nM | IC50 [1, 4]: 0.407 µM
O=C1NC(=O)C(CN2Cc3ccccc3C2=O)(c2ccccc2)N1 (centres unmarked) [Compound 1297] |  | 16.4 nM | 
COc1ccc2c(c1)C(=O)N(C[C@@]1(c3ccc(-c4ccc(F)c(C#N)c4)cc3)NC(=O)NC1=O)C2 [Compound 1506] |  | 6.4 nM | 
CNC(=O)c1cnc2cc([C@]3(CN4Cc5ccc(OC)cc5C4=O)NC(=O)NC3=O)oc2c1 [Compound 1930] |  |  | Ki ([2]; Ki): 0.87 nM
CCNC(=O)N1CCc2oc([C@]3(CN4Cc5ccc(OC)cc5C4=O)NC(=O)NC3=O)cc2C1 [Compound 2442] |  |  | IC50 [1, 5]: 0.309 µM
COc1ccc2c(c1)C(=O)N(C[C@@]1(c3cc4c(o3)CCN(C(=O)Nc3cccnc3)C4)NC(=O)NC1=O)C2 [Compound 2443] |  |  | IC50 [1, 5]: ≥ 1000 µM
COc1ccc2c(c1)C(=O)N(C[C@@]1(c3cc4cnc(C#N)cc4o3)NC(=O)NC1=O)C2 [Compound 2444] |  |  | IC50 [1, 5]: 0.759 µM
CNC(=O)c1cnc2cc([C@]3(CN4Cc5ccc(OC)cc5C4=O)NC(=O)NC3=O)oc2c1 [Compound 2461] |  |  | Ki ([2]; Ki): 0.871 nM
COc1ccc2c(c1)C(=O)N(C[C@@]1(c3cc4ncc(C(=O)NCCN(C)C)cc4o3)NC(=O)NC1=O)C2 [Compound 2465] |  |  | IC50 [1, 5]: 0.8 µM
COc1ccc2c(c1)C(=O)N(C[C@@]1(c3cc4nc(-c5ccc(S(N)(=O)=O)cc5)ccc4o3)NC(=O)NC1=O)C2 [Compound 2490] |  |  | IC50 [1, 5]: 2.69 µM
COc1ccc2c(c1F)C(=O)N(C[C@@]1(c3cc4cc5c(cc4o3)C(=O)NCCC5)NC(=O)NC1=O)C2 [Compound 2492] |  |  | IC50 [1, 5]: 0.322 µM
